Assay [1] concerns E. coli cytoplasmic membrane. As to the kind of experiment: Membrane depolarization, diSC3. In kind it is cell-based, Escherichia coli. Particulars: E. coli 2 × 10^7 cells/mL, 50 nM diSC3(5).
The test system of assay [2] is E. coli cells. As to the kind of experiment: SYTOX Green uptake. The following applies: 5 μM peptide; for SYTOX Green influx into E. coli (in words): E. coli cells in PBS.
Assay [3] concerns C. neoformans cells. As to the kind of experiment: SYTOX Green uptake. In kind it is cell-based, Cryptococcus neoformans. The following applies: 5 μM peptide, 2 × 10^7 cells/mL in PBS, 1 μM SYTOX Green.
Assay [4] in a line: Leakage of terbium from lipid vesicles. Particulars: peptide:lipid 1:100, method as in earlier work.

Take `CC(C)[C@@H]1NC(=O)[C@H](C)OC(=O)[C@@H](C(C)C)NC(=O)[C@@H](C(C)C)OC(=O)[C@H](C(C)C)NC(=O)[C@H](C)OC(=O)[C@@H](C(C)C)NC(=O)[C@@H](C(C)C)OC(=O)[C@H](C(C)C)NC(=O)[C@H](C)OC(=O)[C@@H](C(C)C)NC(=O)[C@@H](C(C)C)OC1=O` [valinomycin]: in assay [1] (40 μM), the “collapse of the membrane potential (in words)” value is listed as “Complete collapse of the membrane potential”.

With `CC[C@H](C)[C@H](NC(=O)CN)C(=O)NCC(=O)N[C@@H](C)C(=O)N[C@H](C(=O)N[C@@H](CC(C)C)C(=O)N[C@@H](CCCCN)C(=O)N[C@H](C(=O)N[C@@H](CC(C)C)C(=O)N[C@H](C(=O)N[C@H](C(=O)NCC(=O)N[C@@H](CC(C)C)C(=O)N1CCC[C@H]1C(=O)N[C@@H](C)C(=O)N[C@@H](CC(C)C)C(=O)N[C@H](C(=O)N[C@@H](CO)C(=O)N[C@@H](Cc1c[nH]c2ccccc12)C(=O)N[C@H](C(=O)N[C@@H](CCCCN)C(=O)N[C@@H](CCCNC(=N)N)C(=O)N[C@@H](CCCCN)C(=O)N[C@@H](CCCNC(=N)N)C(=O)N[C@@H](CCC(N)=O)C(=O)N[C@@H](CCC(N)=O)C(N)=O)[C@@H](C)CC)[C@@H](C)CC)[C@@H](C)O)[C@@H](C)O)C(C)C)C(C)C` [Melittin], in assay [2] (E. coli in PBS), the “time to 50% of the maximum SYTOX Green uptake” value is recorded as “about 15 minutes” and the “time to complete SYTOX Green leakage” value is given as ≤ 25 min. Moreover, the “time of membrane potential dissipation” value in assay [1] (5 μM peptide, 25°C) is on record as “less than 30 seconds”. In addition, the “permeabilization of fungal cells, SYTOX Green (in words)” value in assay [3] is given as “completely permeabilizes the fungal cells in just a few minutes”. Besides, in assay [4], the “% of Tb leakage, P:L 1:100” value is on record as 100%.

In the case of `CC1(C)S[C@@H]2[C@H](NC(=O)[C@H](N)c3ccccc3)C(=O)N2[C@H]1C(=O)O` [ampicillin], in assay [2], the “SYTOX Green influx into E. coli (in words)” value is reported as “no effect”.

With `CC[C@H](C)[C@H](N)C(=O)N[C@@H](CC(C)C)C(=O)N1CCC[C@H]1C(=O)N[C@@H](Cc1c[nH]c2ccccc12)C(=O)N[C@@H](CCCCN)C(=O)N[C@@H](Cc1c[nH]c2ccccc12)C(=O)N1CCC[C@H]1C(=O)N[C@@H](Cc1c[nH]c2ccccc12)C(=O)N[C@@H](Cc1c[nH]c2ccccc12)C(=O)N1CCC[C@H]1C(=O)N[C@@H](Cc1c[nH]c2ccccc12)C(=O)N[C@@H](CCCNC(=N)N)C(=O)N[C@@H](CCCNC(=N)N)C(N)=O` [Indolicidin], in assay [2], the “SYTOX Green influx into E. coli (in words)” value is given as “only a very small amount of dye influx”. Also, the “% of Tb leakage, P:L 1:100” value in assay [4] came to 8%.

These data come from article PMC2935846 (Journal of the American Chemical Society, 2009).
